Several values for one entry are separate records, joined by “and”; a condition that tells them apart may be missing. Equal entries are not always repeated. Where two headings read alike, the source gives them in different places.
What was measured:
[1] = head-to-tail macrolactamisation of free linear pentapeptide 10 (H-NMeAA...Leu-OH), PyBOP (2 equiv), DMAP (3 equiv); Route E: peptide solution (4.3 mM in MeCN) added dropwise over 10 h to PyBOP/DMAP in MeCN, further 3 h stirring; conditions: the molecule shown is the open-chain precursor; 15-membered ring; CH3CN; 1.0 mM; 20.0 °C; 13.0 h
[2] = amide bond; 15-membered ring; PyBOP/DMAP; MeCN; 4.3 mM

Compound | ring closure, isolated yield [1] | ring closure, isolated yield [2]
CN[C@@H](CC(C)C)C(=O)N[C@H](CC(C)C)C(=O)N[C@@H](CC(C)C)C(=O)N(C)[C@@H](CC(C)C)C(=O)N[C@H](CC(C)C)C(=O)O [H-N(Me)Leu-D-Leu-Leu-N(Me)Leu-D-Leu-OH] | 45% | 
CN[C@@H](CC(C)C)C(=O)N[C@@H](CC(C)C)C(=O)N[C@H](Cc1cccc(C)c1)C(=O)N(C)[C@@H](CC(C)C)C(=O)N[C@@H](CC(C)C)C(=O)O [H-N(Me)Leu-Leu-D-Phe(3-Me)-N(Me)Leu-Leu-OH] | 53% | 
Cyclo(Me-D-Leu-D-Leu-D-Leu-Me-D-Leu-D-Leu) |  | 48%
CN[C@H](CC(C)C)C(=O)N[C@H](CC(C)C)C(=O)N[C@@H](CC(C)C)C(=O)N(C)[C@H](CC(C)C)C(=O)N[C@H](CC(C)C)C(=O)O [H-D-N(Me)Leu-D-Leu-Leu-D-N(Me)Leu-D-Leu-OH] | 50% | 
Cyclo(Me-L-Leu-L-Leu-3-Me-D-Phe-Me-L-Leu-L-Leu) |  | 53% and 50%
CN[C@@H](CC(C)C)C(=O)N[C@@H](CC(C)C)C(=O)N[C@H](Cc1ccc(Br)cc1)C(=O)N(C)[C@@H](CC(C)C)C(=O)N[C@@H](CC(C)C)C(=O)O [H-N(Me)Leu-Leu-D-Phe(4-Br)-N(Me)Leu-Leu-OH] | 55% | 
Cyclo(Me-D-Leu-L-Leu-L-Leu-Me-D-Leu-L-Leu) |  | 48%
Cyclo(Me-L-Leu-D-Leu-L-Leu-Me-L-Leu-D-Leu) |  | 45%
Cyclo(Me-L-Leu-L-Leu-D-Ala-Me-L-Leu-L-Leu) |  | 49%
CN[C@@H](CC(C)C)C(=O)N[C@@H](CC(C)C)C(=O)N[C@H](COC)C(=O)N(C)[C@@H](CC(C)C)C(=O)N[C@@H](CC(C)C)C(=O)O [H-N(Me)Leu-Leu-D-Ser(OMe)-N(Me)Leu-Leu-OH] | 52% | 
Cyclo(Me-L-Leu-L-Leu-Gly-Me-L-Leu-L-Leu) |  | 51%
CN[C@@H](CC(C)C)C(=O)N[C@@H](CC(C)C)C(=O)NCC(=O)N(C)[C@@H](CC(C)C)C(=O)N[C@@H](CC(C)C)C(=O)O [H-N(Me)Leu-Leu-Gly-N(Me)Leu-Leu-OH] | 51% | 
Cyclo(Me-L-Leu-L-Leu-D-Pro-Me-L-Leu-L-Leu) |  | 51%
Cyclo(Me-L-Leu-L-Leu-4-Bro-D-Phe-Me-L-Leu-L-Leu) |  | 55%
Cyclo(Me-L-Leu-L-Leu-O-Me-D-Ser-Me-L-Leu-L-Leu) |  | 52%
Cyclo(Me-L-Leu-L-Leu-D-Met-Me-L-Leu-L-Leu) |  | 52%
CN[C@@H](CC(C)C)C(=O)N[C@@H](CC(C)C)C(=O)N[C@H](Cc1ccc(Cl)cc1)C(=O)N(C)[C@@H](CC(C)C)C(=O)N[C@@H](CC(C)C)C(=O)O [H-N(Me)Leu-Leu-D-Phe(4-Cl)-N(Me)Leu-Leu-OH] | 55% | 
Cyclo(Me-L-Leu-L-Leu-D-Phe-Me-L-Leu-L-Leu) |  | 51%
CN[C@H](CC(C)C)C(=O)N[C@@H](CC(C)C)C(=O)N[C@H](CC(C)C)C(=O)N(C)[C@H](CC(C)C)C(=O)N[C@@H](CC(C)C)C(=O)O [H-D-N(Me)Leu-Leu-D-Leu-D-N(Me)Leu-Leu-OH] | 45% | 
Cyclo(Me-D-Leu-D-Leu-L-Leu-Me-D-Leu-D-Leu) |  | 50%
CN[C@@H](CC(C)C)C(=O)N[C@@H](CC(C)C)C(=O)N[C@H](Cc1cccc(F)c1)C(=O)N(C)[C@@H](CC(C)C)C(=O)N[C@@H](CC(C)C)C(=O)O [H-N(Me)Leu-Leu-D-Phe(3-F)-N(Me)Leu-Leu-OH] | 53% | 
CN[C@@H](CC(C)C)C(=O)N[C@@H](CC(C)C)C(=O)N[C@H](CCSC)C(=O)N(C)[C@@H](CC(C)C)C(=O)N[C@@H](CC(C)C)C(=O)O [H-N(Me)Leu-Leu-D-Met-N(Me)Leu-Leu-OH] | 52% | 
CN[C@@H](CC(C)C)C(=O)N[C@@H](CC(C)C)C(=O)N1CCC[C@@H]1C(=O)N(C)[C@@H](CC(C)C)C(=O)N[C@@H](CC(C)C)C(=O)O [H-N(Me)Leu-Leu-D-Pro-N(Me)Leu-Leu-OH] | 51% | 
CN[C@@H](CC(C)C)C(=O)N[C@@H](CC(C)C)C(=O)N[C@H](Cc1ccc(C)cc1)C(=O)N(C)[C@@H](CC(C)C)C(=O)N[C@@H](CC(C)C)C(=O)O [H-N(Me)Leu-Leu-D-Phe(4-Me)-N(Me)Leu-Leu-OH] | 50% | 

Compound | ring closure, isolated yield [1] | ring closure, isolated yield [2]
CN[C@@H](CC(C)C)C(=O)N[C@@H](CC(C)C)C(=O)N[C@H](Cc1ccccc1C)C(=O)N(C)[C@@H](CC(C)C)C(=O)N[C@@H](CC(C)C)C(=O)O [H-N(Me)Leu-Leu-D-Phe(2-Me)-N(Me)Leu-Leu-OH] | 53% | 
Cyclo(Me-L-Leu-L-Leu-D-phenyl-Gly-Me-L-Leu-L-Leu) |  | 51%
Cyclo(Me-D-Leu-L-Leu-D-Leu-Me-D-Leu-L-Leu) |  | 45%
CN[C@@H](CC(C)C)C(=O)N[C@@H](CC(C)C)C(=O)N[C@H](Cc1ccc(OC)cc1)C(=O)N(C)[C@@H](CC(C)C)C(=O)N[C@@H](CC(C)C)C(=O)O [H-N(Me)Leu-Leu-D-Tyr(OMe)-N(Me)Leu-Leu-OH] | 52% | 
Cyclo(Me-L-Leu-L-Leu-2-Me-D-Phe-Me-L-Leu-L-Leu) |  | 53%
Cyclo(Me-L-Leu-D-Leu-D-Leu-Me-L-Leu-D-Leu) |  | 54%
Cyclo(Me-L-Leu-L-Leu-D-Leu-Me-L-Leu-L-Leu) |  | 45%
Cyclo(Me-L-Leu-L-Leu-D-cyclohexyl-Gly-Me-L-Leu-L-Leu) |  | 51%
CN[C@@H](CC(C)C)C(=O)N[C@@H](CC(C)C)C(=O)N[C@@H](C(=O)N(C)[C@@H](CC(C)C)C(=O)N[C@@H](CC(C)C)C(=O)O)C(C)C [H-N(Me)Leu-Leu-D-Val-N(Me)Leu-Leu-OH] | 50% | 
Cyclo(Me-L-Leu-L-Leu-4-Chl-D-Phe-Me-L-Leu-L-Leu) |  | 55%
Cyclo(Me-L-Leu-L-Leu-3-Flu-D-Phe-Me-L-Leu-L-Leu) |  | 53%
CN[C@@H](CC(C)C)C(=O)N[C@@H](CC(C)C)C(=O)N[C@H](CC(=O)OC)C(=O)N(C)[C@@H](CC(C)C)C(=O)N[C@@H](CC(C)C)C(=O)O [H-N(Me)Leu-Leu-D-Asp(OMe)-N(Me)Leu-Leu-OH] | 52% | 
CN[C@H](CC(C)C)C(=O)N[C@@H](CC(C)C)C(=O)N[C@@H](CC(C)C)C(=O)N(C)[C@H](CC(C)C)C(=O)N[C@@H](CC(C)C)C(=O)O [H-D-N(Me)Leu-Leu-Leu-D-N(Me)Leu-Leu-OH] | 48% | 
CN[C@@H](CC(C)C)C(=O)N[C@@H](CC(C)C)C(=O)N[C@H](CC(C)C)C(=O)N(C)[C@@H](CC(C)C)C(=O)N[C@@H](CC(C)C)C(=O)O [H-N(Me)Leu-Leu-D-Leu-N(Me)Leu-Leu-OH] | 45% | 
CN[C@H](CC(C)C)C(=O)N[C@H](CC(C)C)C(=O)N[C@H](CC(C)C)C(=O)N(C)[C@H](CC(C)C)C(=O)N[C@H](CC(C)C)C(=O)O [H-D-N(Me)Leu-D-Leu-D-Leu-D-N(Me)Leu-D-Leu-OH] | 48% | 
Cyclo(Me-L-Leu-L-Leu-O-Tyr-Me-L-Leu-L-Leu) |  | 52%
CN[C@@H](CC(C)C)C(=O)N[C@@H](CC(C)C)C(=O)N[C@H](C)C(=O)N(C)[C@@H](CC(C)C)C(=O)N[C@@H](CC(C)C)C(=O)O [H-N(Me)Leu-Leu-D-Ala-N(Me)Leu-Leu-OH] | 49% | 
CN[C@@H](CC(C)C)C(=O)N[C@H](CC(C)C)C(=O)N[C@H](CC(C)C)C(=O)N(C)[C@@H](CC(C)C)C(=O)N[C@H](CC(C)C)C(=O)O [H-N(Me)Leu-D-Leu-D-Leu-N(Me)Leu-D-Leu-OH] | 54% | 
CN[C@@H](CC(C)C)C(=O)N[C@@H](CC(C)C)C(=O)N[C@@H](C(=O)N(C)[C@@H](CC(C)C)C(=O)N[C@@H](CC(C)C)C(=O)O)c1ccccc1 [H-N(Me)Leu-Leu-D-Phg-N(Me)Leu-Leu-OH] | 51% | 
Cyclo(Me-L-Leu-L-Leu-D-Val-Me-L-Leu-L-Leu) |  | 50%
CN[C@@H](CC(C)C)C(=O)N[C@@H](CC(C)C)C(=O)N[C@H](Cc1ccccc1)C(=O)N(C)[C@@H](CC(C)C)C(=O)N[C@@H](CC(C)C)C(=O)O [H-N(Me)Leu-Leu-D-Phe-N(Me)Leu-Leu-OH] | 51% | 
Cyclo(Me-L-Leu-L-Leu-Methylester-D-Asp-Me-L-Leu-L-Leu) |  | 52%
CN[C@@H](CC(C)C)C(=O)N[C@@H](CC(C)C)C(=O)N[C@@H](C(=O)N(C)[C@@H](CC(C)C)C(=O)N[C@@H](CC(C)C)C(=O)O)C1CCCCC1 [H-N(Me)Leu-Leu-D-Chg-N(Me)Leu-Leu-OH] | 51% | 

— PMC12155888, “Design, Synthesis, and Antitumor Biological Evaluation of Galaxamide and Its Analogs” (Molecules, 2025)
